# Test results as given in patent publication US20240309003A1, “HETEROCYCLIC COMPOUNDS AS TRIGGERING RECEPTOR EXPRESSED ON MYELOID CELLS 2 AGONISTS AND METHODS OF USE” (Vigil Neuroscience, Inc., priority 2021, published 2024).
# Molecular target: T1, human TREM2 (Homo sapiens, UniProt Q9NZC2)
# T1 construct: expressed in transfected cells; host or cells: HEK293T
# Assay: TREM2 agonist potency by cellular phosphorylation of Syk (AlphaLisa) in HEK293T-hTREM2 cells
# Assay type: cell-based
# Conditions: HEK293 cells expressing human TREM2 and DAP12, Table D
# Procedure, shortened: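 Agonist EC50 from a variable-slope four-parameter fit of % activation, based on AlphaLisa phospho-Syk levels in lysates. Cells: HEK293T-hTREM2 (with DAP12), treated 45 min at room temperature with compound in assay buffer.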
# T1 sequence (Q9NZC2 19-230): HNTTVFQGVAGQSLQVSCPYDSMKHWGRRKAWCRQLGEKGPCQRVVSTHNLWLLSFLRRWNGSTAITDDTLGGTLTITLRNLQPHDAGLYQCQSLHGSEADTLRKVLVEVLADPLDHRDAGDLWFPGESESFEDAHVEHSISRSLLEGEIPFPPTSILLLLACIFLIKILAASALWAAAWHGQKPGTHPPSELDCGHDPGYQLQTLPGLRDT
# T1 sequence (O43914 22-113 partner): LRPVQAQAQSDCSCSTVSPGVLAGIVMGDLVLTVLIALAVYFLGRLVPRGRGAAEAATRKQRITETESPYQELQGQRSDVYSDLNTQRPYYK
row,EC50 [nM],Compound
1,500 to 3000,Cc1nc2nc([C@@H]3CCO[C@H](c4cccn(C)c4=O)C3)nc(-c3ccc(F)cc3F)c2nc1C [Example 204]
2,50 to 500,"COc1ncccc1[C@@H]1C[C@H](c2nc(-c3ccc(F)cc3F)c3nc(C)c(C)nc3n2)CCO1 [Example 160, 4-(2,4-difluorophenyl)-2-((2S,4R)-2-(2-methoxypyridin-3-yl)tetrahydro-2H-pyran-4-yl)-6,7-dimethylpteridine]"
3,500 to 3000,"Cc1ccc2c(C34CC(C(F)(F)F)(C3)C4)nc([C@H]3C[C@@H](C)O[C@@H](c4cnn(C5CC5)c4)C3)nc2n1 [Example 220, 2-((2R,4S,6R)-2-(1-cyclopropyl-1H-pyrazol-4-yl)-6-methyltetrahydro-2H-pyran-4-yl)-7-methyl-4-(3-(trifluoromethyl)bicyclo[1.1.1]pentan-1-yl)pyrido[2,3-d]pyrimidine]"
4,< 50,"Cc1cnc2c(-c3ccc(Cl)cc3F)nc(N3C[C@@H](C)O[C@@H](c4cnn(C5CC5)c4)C3)nc2n1 [Example 117, (2S,6R)-4-(4-(4-chloro-2-fluorophenyl)-7-methylpteridin-2-yl)-2-(1-cyclopropyl-1H-pyrazol-4-yl)-6-methylmorpholine]"
5,50 to 500,"Cc1nc2cc([C@H]3CCO[C@@H](c4cnn(C5CC5)c4)C3)cc(-c3ccc(Cl)cc3F)c2nc1C [Example 228, 5-(4-chloro-2-fluorophenyl)-7-((2R,4S)-2-(1-cyclopropyl-1H-pyrazol-4-yl)tetrahydro-2H-pyran-4-yl)-2,3-dimethylquinoxaline]"
6,50 to 500,"COc1ncccc1[C@H]1C[C@@H](c2nc(C34CC(C(F)(F)F)(C3)C4)c3nc(C)c(C)nc3n2)CCO1 [Example 144, 2-((2R,4S)-2-(2-methoxypyridin-3-yl)tetrahydro-2H-pyran-4-yl)-6,7-dimethyl-4-(3-(trifluoromethyl)bicyclo[1.1.1]pentan-1-yl)pteridine]"
7,50 to 500,"Cc1nc2nc([C@@H]3CCO[C@H](c4cnn(C5CC5)c4)C3)nc(-c3ccc(C(F)(F)F)cc3)c2nc1C [Example 138, 2-((2S,4R)-2-(1-cyclopropyl-1H-pyrazol-4-yl)tetrahydro-2H-pyran-4-yl)-6,7-dimethyl-4-(4-(trifluoromethyl)phenyl)pteridine]"
8,< 50,"Cc1cc([C@H]2C[C@@H](c3nc(-c4ccc(Cl)c(F)c4F)c4ncc(C)nc4n3)CCO2)ccn1 [Example 130, 4-(4-chloro-2,3-difluorophenyl)-7-methyl-2-((2R,4S)-2-(2-methylpyridin-4-yl)tetrahydro-2H-pyran-4-yl)pteridine]"
9,< 50,"Cc1cc([C@@H]2C[C@H](c3cc(-c4ccc(Cl)c(F)c4F)c4cc(C)c(C)nc4n3)CCO2)ccn1 [Example 187, 5-(4-chloro-2,3-difluorophenyl)-2,3-dimethyl-7-((2S,4R)-2-(2-methylpyridin-4-yl)tetrahydro-2H-pyran-4-yl)-1,8-naphthyridine]"
10,< 50,"Cc1nc2nc(N3CCO[C@H](c4cnn(C5CC5)c4)C3)nc(-c3ccc4c(c3)CC4)c2nc1C [Example 242, (R)-4-(4-(bicyclo[4.2.0]octa-1,3,5-trien-3-yl)-6,7-dimethylpteridin-2-yl)-2-(1-cyclopropyl-1H-pyrazol-4-yl)morpholine]"
11,50 to 500,"Cc1nc2nc(N3CCO[C@@H](c4cnn(C5CC5)c4)C3)nc(-c3ccc4c(c3)CC4)c2nc1C [Example 240, (S)-4-(4-(bicyclo[4.2.0]octa-1,3,5-trien-3-yl)-6,7-dimethylpteridin-2-yl)-2-(1-cyclopropyl-1H-pyrazol-4-yl)morpholine]"
12,< 50,"Cc1cc([C@H]2C[C@@H](c3cc(-c4ccc(Cl)cc4F)c4cc(C)c(C)nc4n3)CCO2)ccn1 [Example 184, 5-(4-chloro-2-fluorophenyl)-2,3-dimethyl-7-((2R,4S)-2-(2-methylpyridin-4-yl)tetrahydro-2H-pyran-4-yl)-1,8-naphthyridine]"
13,< 50,"[2H]C1([2H])C[C@H](c2nc(-c3ccc(F)cc3F)c3nc(C)c(C)nc3n2)C[C@]([2H])(c2cnn(C3CC3)c2)O1 [Example 190, 2-((2R,4S)-2-(1-cyclopropyl-1H-pyrazol-4-yl)tetrahydro-2H-pyran-4-yl-2,6,6-d3)-4-(2,4-difluorophenyl)-6,7-dimethylpteridine]"
14,50 to 500,"Cc1nc2nc(C3CCOC(c4cc(C5CC5)n[nH]4)C3)nc(-c3ccc(F)cc3F)c2nc1C (stereo not shown) [Example 166, 2-(2-(3-cyclopropyl-1H-pyrazol-5-yl)tetrahydro-2H-pyran-4-yl)-4-(2,4-difluorophenyl)-6,7-dimethylpteridine]"
15,50 to 500,"COc1cccc([C@H]2C[C@@H](c3nc(-c4ccc(F)cc4F)c4nc(C)c(C)nc4n3)CCO2)n1 [Example 165, 4-(2,4-difluorophenyl)-2-((2R,4S)-2-(6-methoxypyridin-2-yl)tetrahydro-2H-pyran-4-yl)-6,7-dimethylpteridine]"
16,50 to 500,"Cc1nc2nc(N3CCO[C@H](c4cc[nH]c(=O)c4)C3)nc(-c3ccc(C(F)(F)F)nc3)c2nc1C [Example 196, (R)-4-(4-(6,7-dimethyl-4-(6-(trifluoromethyl)pyridin-3-yl)pteridin-2-yl)morpholin-2-yl)pyridin-2(1H)-one]"
17,500 to 3000,Cc1nc2nc([C@H]3CCO[C@@H](c4ccc(=O)n(C)c4)C3)nc(-c3ccc(F)cc3F)c2nc1C [Example 201]
18,< 50,"Cc1cc2c(-c3ccc(Cl)cc3F)cc([C@H]3CCO[C@@H](c4cnn(C5CC5)c4)C3)nc2nc1C [Example 233, 5-(4-chloro-2-fluoro-phenyl)-7-[(2R,4S)-2-(1-cyclopropylpyrazol-4-yl)tetrahydropyran-4-yl]-2,3-dimethyl-1,8-naphthyridine]"
19,< 50,"[2H]C1(n2cc([C@H]3C[C@@H](c4nc(-c5ccc(Cl)cc5F)c5nc(C)c(C)nc5n4)CCO3)cn2)CC1 [Example 179, 4-(4-chloro-2-fluorophenyl)-2-((2R,4S)-2-(1-(cyclopropyl-1-d)-1H-pyrazol-4-yl)tetrahydro-2H-pyran-4-yl)-6,7-dimethylpteridine]"

# Same assay, conditions: HEK293 cells expressing human TREM2 and DAP12, Table D-2
row,EC50 [nM],Compound
1,50 to 500,"Cc1nc2nc(N3C[C@@H](C4CC4)O[C@@H](c4cnn(C(F)F)c4)C3)nc(-c3ccc(F)cc3F)c2nc1C (stereo in doubt) [Example I-1702, (2R,6S)-2-cyclopropyl-6-[1-(difluoromethyl)pyrazol-4-yl]-4-[4-(2,4-difluorophenyl)-6,7-dimethyl-pteridin-2-yl]morpholine]"
2,50 to 500,"Cc1cc([C@@H]2CN(c3nc(-c4ccc(Cl)cc4F)c4nc(C)c(C)nc4n3)CCO2)no1 [Example I-1270, 4-[4-(4-chloro-2-fluoro-phenyl)-6,7-dimethyl-pteridin-2-yl]-2-(5-methylisoxazol-3-yl)morpholine]"
3,< 50,"Cc1nc2nc(N3C[C@@H](C(F)F)O[C@@H](c4cnn(C5CC5)c4)C3)nc(-c3ccc(F)cc3F)c2nc1C (single isomer, unassigned) [Example I-1467]"
4,50 to 500,Cc1cc(N2C[C@@H](c3nc(-c4ccc(F)cc4F)c4nc(C)c(C)nc4n3)CCC2=O)ccn1 [Example I-1513]
5,< 50,"Cc1nc2nc(N3C[C@@H](c4cnn(C5CC5)c4)O[C@@H](C(F)F)C3)nc(-c3ccc(F)cc3F)c2nc1C (single isomer, unassigned) [Example I-1524]"
6,< 50,"Cc1nc2nc(N3C[C@@H](c4cnn(C5CC5)c4)O[C@@H](C(F)F)C3)nc(-c3ccc(C(F)(F)F)cc3F)c2nc1C [Example I-1638, (2R,6R)-2-(1-cyclopropylpyrazol-4-yl)-6-(difluoromethyl)-4-[4-[2-fluoro-4-(trifluoromethyl)phenyl]-6,7-dimethyl-pteridin-2-yl]morpholine]"
7,500 to 3000,"Cc1nc2cc([C@H]3CCO[C@@H](c4cnn(C5CC5)c4)C3)nc(-c3ccc(F)cc3F)c2nc1CC#N [Example I-1451, 2-(7-((2R,4S)-2-(1-cyclopropyl-1H-pyrazol-4-yl)tetrahydro-2H-pyran-4-yl)-5-(2,4-difluorophenyl)-2-methylpyrido[3,4-b]pyrazin-3-yl)acetonitrile]"
8,50 to 500,"Cc1nc2nc(N3C[C@@H](c4cnn(C)c4)O[C@@H](C4CC4)C3)nc(-c3ccc(F)cc3F)c2nc1C [Example I-1674, (2S,6R)-2-cyclopropyl-4-[4-(2,4-difluorophenyl)-6,7-dimethyl-pteridin-2-yl]-6-(1-methylpyrazol-4-yl)morpholine]"
9,< 50,"Cc1nc2nc([C@H]3CCO[C@@H](c4cnn(C56CC(C5)C6)c4)C3)nc(-c3ccc(F)cc3F)c2nc1C [Example I-1668, 2-[(2R,4S)-2-[1-(1-bicyclo [1.1.1]pentanyl)pyrazol-4-yl]tetrahydropyran-4-yl]-4-(2,4-difluorophenyl)-6,7-dimethyl-pteridine]"
10,< 50,"Cc1nc2nc(N3C[C@@H](C(F)F)O[C@@H](c4cnn(C5CC5)c4)C3)nc(-c3ccc(C(F)(F)F)cc3F)c2nc1C (stereo in doubt) [Example I-1598, (2S,6S)-2-(1-cyclopropylpyrazol-4-yl)-6-(difluoromethyl)-4-[4-[2-fluoro-4-(trifluoromethyl)phenyl]-6,7-dimethyl-pteridin-2-yl]morpholine]"
11,< 50,"COCn1cc([C@H]2CN(c3nc(-c4ccc(F)cc4F)c4cc(C)c(C)nc4n3)C[C@@H](C)O2)cn1 [Example I-1226, (2S,6R)-4-[4-(2,4-difluorophenyl)-6,7-dimethyl-pyrido[2,3-d]pyrimidin-2-yl]-2-[1-(methoxymethyl)pyrazol-4-yl]-6-methyl-morpholine]"
12,< 50,"Cc1nc2nc(N3C[C@@H](c4cnn(C(F)F)c4)O[C@@H](C4CC4)C3)nc(-c3ccc(F)cc3F)c2nc1C (stereo in doubt) [Example I-1701, (2S,6R)-2-cyclopropyl-6-[1-(difluoromethyl)pyrazol-4-yl]-4-[4-(2,4-difluorophenyl)-6,7-dimethyl-pteridin-2-yl]morpholine]"
